From patent publication US20090012178A1, “Benzoxazocines and Their Therapeutic Use” (priority 2005, published 2009) come the findings set out here.

Where two headings read alike, the source gives them in different places.

One series has as its target 5-HT Transporter (Homo sapiens, UniProt P31645). The series can be described thus: 5-HT Transporter binding assay (SRI). On the procedure:
(§1) CYP 2D6 inhibition assays were conducted according to the method of Ono et al. (1996—Xenobiotica, 26: 681-693). 5-HT Transporter binding assays were conducted according to the method of Tatsumi et al. (1997—Eur. J. Pharmacol., 340: 249-258). NA Transporter binding assays were conducted according to the method of Pacholczyk et al. (1991—Nature, 350: 350-354).

A further series concerns the target NA Transporter (Homo sapiens, UniProt P23975). Briefly: NA Transporter binding assay (NRI). How it is done:
as §1

In the next series the target is CYP 2D6 (Homo sapiens, UniProt P10635). Briefly: CYP 2D6 inhibition, substrate based assay. It counts as in vitro ADME. How it is done:
as §1

A short description of series [1]: Mouse hotplate model of acute analgesia. The conditions noted are these: for Paw Latency (Sec) above control: 60 min before testing, * = statistical significance. It counts as in vivo. On the procedure:
Compounds of the invention have also been evaluated in the mouse hotplate model of acute analgesia. Mice placed on a metallic hot plate will respond by paw licking or by jumping up from the plate (Eddy et al., 1950—J. Pharmacol. Exp. Ther.; 98:121-137). Analgesics increase nociceptive reaction latency.
Mice (17-23 g male Swiss mice ICO: OF1) were placed on a metallic hot plate maintained at 56±0.2° C. The nociceptive reaction latency, characterized by a licking reflex of the forepaws or by a jumping off the hot plate, was recorded. Plate heat cut-off time was 30 seconds. The test substances and vehicle were orally administered 60 min before testing. Results are given in Table 2 (nt=not tested; *denotes statistical significance achieved).

Series [2] in a line: Formalin-induced paw licking in mouse. It counts as in vivo. To be noted: * = statistical significance; for Nociception, Early Phase: licking time 0 to 5 minutes after formalin; for Nociception, Late Phase: licking time 20 to 30 minutes after formalin. How it is done:
Compounds of the invention have also been evaluated in the formalin-induced paw licking model in mice. Compounds were evaluated for both an early stage response and a late stage response against duloxetine and nefopam as controls.
Inflammation was induced by subplantar injection of a 5% formalin solution (0.02 ml) into the mouse right hindpaw (20-25 g male Rj: NMRI). Hindpaw licking time was continuously recorded in a blinded fashion between 0 to 5 minutes (early phase) and between 20 to 30 minutes (late phase) after formalin injection (Hunskaar et al., 1985—J. Neurosci. Methods; 14:69-76).
The test substances and vehicle were orally administered 60 min before formalin injection. Results are given in Table 3 (nt=not tested; *denotes statistical significance achieved).

A short description of series [3]: Morphine challenge assay (morphine-induced emesis in ferrets). It counts as in vivo, ferret. To be noted: for % Reduction in no of retches/vomits: 3 mg/kg ip, 60 min before morphine 0.125 mg/Kg s.c., * = statistical significance; for anti-emetic activity in the morphine-induced emesis model (in words): ferrets. How it is done:
In this respect, compounds of the invention retain the low side-effect potential of nefopam while having greater efficacy and more favourable pharmacokinetic parameters for chronic use.
Morphine was administered (0.125 mg/Kg s.c.) to albino or fitch male ferrets (0.9-1.7 kg) to induce emesis. Emesis was characterized by rhythmic abdominal contractions which were either associated with the oral expulsion of solid or liquid material from the gastrointestinal tract (ie vomiting) or not associated with the passage of material (i.e. retching movements). The number of highly distinctive abdominal contractions was counted.
The test substances and vehicle were administered by intraperitoneal injection 60 min before morphine administration. Results are given in Table 4 (*denotes statistical significance achieved).

The next series can be described thus: Behavioural Despair Test. Type of series: in vivo, mouse. The conditions noted are these: 30 minutes before the test, * = statistical significance. How it is done:
Compounds of the invention have been evaluated in the Behavioural Despair Test, a model which detects antidepressant activity.
The Behavioural Despair Test was conducted according to the method of Porsolt et al., (1977—Arch. Int. Pharmacodyn., 229:327-336). Mice forced to swim in a situation from which they cannot escape rapidly become immobile. Antidepressants decrease the duration of immobility.
Mice (20-27 g male Rj: NMRI) were individually placed in a cylinder (height=24 cm, diameter=13 cm) containing 10 cm water (22° C.), from which they cannot escape. The mice were placed in the water for 6 minutes and the duration of immobility during the last 4 minutes was measured. All compounds were administered i.p. 30 minutes before the test, and compared with a vehicle control group. Results are given in Table 5 (nt=not tested; *denotes statistical significance achieved).

A further series in a line: Pharmacokinetic profile. It counts as in vivo. To be noted: compared with nefopam.
The test system of the next series is cytochrome P450 enzymes. The series can be described thus: Metabolism by cytochrome P450 enzymes. Type of series: in vitro ADME.
Where [4] appears, read: read-out: CYP 2D6 inhibition IC50.

NA Transporter, sequence (P23975 whole entry): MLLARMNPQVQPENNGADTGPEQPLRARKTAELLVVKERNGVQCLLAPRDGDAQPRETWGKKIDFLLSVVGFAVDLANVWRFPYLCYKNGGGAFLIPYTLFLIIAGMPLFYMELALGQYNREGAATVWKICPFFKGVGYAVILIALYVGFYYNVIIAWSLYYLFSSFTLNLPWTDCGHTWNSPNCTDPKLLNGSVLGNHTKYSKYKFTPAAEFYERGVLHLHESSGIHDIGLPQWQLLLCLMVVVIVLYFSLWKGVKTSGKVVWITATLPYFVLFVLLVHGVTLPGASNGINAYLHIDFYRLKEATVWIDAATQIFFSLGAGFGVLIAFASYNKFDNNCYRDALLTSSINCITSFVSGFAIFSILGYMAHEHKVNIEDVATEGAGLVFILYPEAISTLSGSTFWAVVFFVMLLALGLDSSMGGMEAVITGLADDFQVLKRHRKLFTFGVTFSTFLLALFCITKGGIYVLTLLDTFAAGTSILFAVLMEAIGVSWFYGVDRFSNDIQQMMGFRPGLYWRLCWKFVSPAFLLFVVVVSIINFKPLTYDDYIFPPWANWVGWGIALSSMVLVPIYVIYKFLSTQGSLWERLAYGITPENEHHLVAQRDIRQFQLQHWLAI
CYP 2D6, sequence (P10635 whole entry): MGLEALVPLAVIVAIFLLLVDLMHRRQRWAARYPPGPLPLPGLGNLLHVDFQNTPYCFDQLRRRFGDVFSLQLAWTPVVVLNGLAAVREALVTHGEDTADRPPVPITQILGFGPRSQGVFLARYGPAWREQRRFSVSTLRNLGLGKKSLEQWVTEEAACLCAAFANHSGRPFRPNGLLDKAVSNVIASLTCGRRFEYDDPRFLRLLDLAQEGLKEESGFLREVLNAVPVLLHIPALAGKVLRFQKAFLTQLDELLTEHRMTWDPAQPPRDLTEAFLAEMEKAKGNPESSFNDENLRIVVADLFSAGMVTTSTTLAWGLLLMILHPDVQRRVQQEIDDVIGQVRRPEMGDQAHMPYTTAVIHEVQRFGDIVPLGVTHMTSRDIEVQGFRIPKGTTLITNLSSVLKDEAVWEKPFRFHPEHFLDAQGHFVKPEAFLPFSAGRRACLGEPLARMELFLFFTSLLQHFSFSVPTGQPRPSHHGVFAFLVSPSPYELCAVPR
5-HT Transporter, sequence (P31645 whole entry): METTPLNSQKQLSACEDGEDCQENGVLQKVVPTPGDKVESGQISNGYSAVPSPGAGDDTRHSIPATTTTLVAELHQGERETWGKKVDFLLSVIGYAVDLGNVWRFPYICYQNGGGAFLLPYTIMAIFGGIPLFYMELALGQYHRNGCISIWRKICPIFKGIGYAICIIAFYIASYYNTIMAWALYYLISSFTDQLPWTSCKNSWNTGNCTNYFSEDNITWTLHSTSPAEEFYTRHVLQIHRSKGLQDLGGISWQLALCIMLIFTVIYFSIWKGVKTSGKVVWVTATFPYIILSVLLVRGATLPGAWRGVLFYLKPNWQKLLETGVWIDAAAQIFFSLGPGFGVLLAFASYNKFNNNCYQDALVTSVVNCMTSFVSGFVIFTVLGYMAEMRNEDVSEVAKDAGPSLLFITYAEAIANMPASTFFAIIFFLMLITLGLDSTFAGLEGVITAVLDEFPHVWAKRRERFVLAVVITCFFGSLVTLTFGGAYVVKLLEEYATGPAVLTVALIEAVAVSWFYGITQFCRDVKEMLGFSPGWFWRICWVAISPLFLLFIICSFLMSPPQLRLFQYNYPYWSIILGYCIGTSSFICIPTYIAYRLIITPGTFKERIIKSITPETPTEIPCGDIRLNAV

As to `COc1cccc(C2OCCN(C)Cc3cc(C#N)ccc32)c1` (single isomer, unassigned) [Example 1], the IC50 – broadly, the concentration needed to halve the response being measured – at 5-HT Transporter was found to be 8.9 nM; on NA Transporter (read-out: IC50 vs NRI), 400 nM; at CYP 2D6, 5700 nM. The “efficacy in the mouse hot-plate model (in words)” value in series [1] is listed as “greater efficacy than the racemate”. Moreover, the “Paw Latency (Sec) above control” value was 9* Sec in series [1] (10 mg/kg po), 5 s in series [1] (30 mg/kg po) and 7* Sec in series [1] (60 mg/kg po). In addition, the “Nociception, Early Phase” value in [2] (30 mg/kg po) is reported as −49%; in [2] (60 mg/kg po) it was −75%*. The “Nociception, Late Phase” value in [2] (30 mg/kg po) is −46%; in [2] (60 mg/kg po), −88%*. Moreover, in series [3], the “% Reduction in no of retches/vomits” value is 91%*. In series [3], the “anti-emetic activity in the morphine-induced emesis model (in words)” value was “anti-emetic”. The “Duration of Immobility (% change from ctrl)” value in “Behavioural Despair Test” (10 mg/kg ip) is listed as −24* %; in “Behavioural Despair Test” (20 mg/kg ip) it was −8%; in “Behavioural Despair Test” (40 mg/kg ip), −61* %; in the series “Behavioural Despair Test” (80 mg/kg ip), −85* %. For the same compound, in the series “Pharmacokinetic profile”, the “pharmacokinetic profile (in words)” value is on record as “greatly improved pharmacokinetic profile over the parent compound nefopam”. Besides, in the series with cytochrome P450 enzymes, the “metabolism by cytochrome P450 enzymes (in words)” value is “metabolised by a range of cytochrome P450 enzymes”.
With `COc1cccc(C2OCCN(C)Cc3cc(C4CC4)ccc32)c1` (single isomer, unassigned) [Example 3, 8-cyclopropyl-5-methyl-1-(3-methoxy)phenyl-1,3,4,6-tetrahydro-5H-benz[f]-2,5-oxazocine], the results for the IC50 on 5-HT Transporter, on NA Transporter and at CYP 2D6 (setting [4]) were 5.2 nM, 46 nM and 1100 nM, respectively. Besides, the figures for the “Paw Latency (Sec) above control” value in [1] (10 mg/kg po), in series [1] (30 mg/kg po) and in [1] (60 mg/kg po) were 3 s, 6* Sec and 9* Sec, respectively. For the same compound, the “Nociception, Early Phase” value in series [2] (30 mg/kg po) is reported as −45%; in series [2] (60 mg/kg po), −56%*. The “Nociception, Late Phase” value in [2] (30 mg/kg po) is −51%; in [2] (60 mg/kg po), −73%*. For the same compound, the “% Reduction in no of retches/vomits” value in [3] is 89%*. Besides, in series [3], the “anti-emetic activity in the morphine-induced emesis model (in words)” value is given as “anti-emetic”.
For `CNCC[C@H](Oc1cccc2ccccc12)c1cccs1` [Duloxetine], the “Nociception, Early Phase” value in series [2] (30 mg/kg po) is −49%. Also, the “Nociception, Late Phase” value in [2] (30 mg/kg po) is listed as −85%*. Moreover, the “Duration of Immobility (% change from ctrl)” value in the series “Behavioural Despair Test” (10 mg/kg ip) is given as −6%; in “Behavioural Despair Test” (20 mg/kg ip), −9%; in the series “Behavioural Despair Test” (40 mg/kg ip), −65* %; in “Behavioural Despair Test” (80 mg/kg ip), −100* %.
Consider `COc1cccc([C@H]2OCCN(C)Cc3cc(C#N)ccc32)c1` [Example 2, (1R)-8-cyano-5-methyl-1-(3-methoxy)phenyl-1,3,4,6-tetrahydro-5H-benz[f]-2,5-oxazocine], for which the IC50 was 120 nM on 5-HT Transporter (read-out: IC50 vs SRI), 3800 nM on NA Transporter (read-out: IC50 vs NRI) and 9600 nM against CYP 2D6. Further, the “Paw Latency (Sec) above control” value came to 6 s in [1] (30 mg/kg po) and 1 s in series [1] (60 mg/kg po).
Take `COc1cccc(C2OCCN(C)Cc3cc(C4CC4)ccc32)c1` (stereo not shown) [Example 4, 8-cyclopropyl-5-methyl-1-(3-methoxy)phenyl-1,3,4,6-tetrahydro-5H-benz[f]-2,5-oxazocine]: the IC50 at 5-HT Transporter (read-out: IC50 vs SRI) is 21 nM; on NA Transporter (read-out: IC50 as NRI) it was above 1000 nM; on NA Transporter (read-out: IC50 vs NRI), above 1000 nM; against CYP 2D6, above 10000 nM; on CYP 2D6 (setting [4]), 10000 nM. For the same compound, the “Paw Latency (Sec) above control” value in [1] (30 mg/kg po) and in series [1] (60 mg/kg po) was 5 s each time.
Consider `CN(C)CCCN1c2ccccc2CCc2ccccc21` [Imipramine], for which the “Duration of Immobility (% change from ctrl)” value in the series “Behavioural Despair Test” (32 mg/kg ip) is listed as −62* %.
For the compound `CN1CCOC(c2ccccc2)c2ccccc2C1` (stereo not shown) [Nefopam, reference compound], the “Nociception, Early Phase” value in series [2] (60 mg/kg po) is recorded as −46%; in series [2] (100 mg/kg po), −76%*. In addition, the “Nociception, Late Phase” value in [2] (60 mg/kg po) is recorded as −26%; in series [2] (100 mg/kg po), −68%*. In addition, the “% Reduction in no of retches/vomits” value in [3] was determined as 96%*.
